From patent publication US10059694B2, “2-aminopyrimidine compound and pharmaceutical composition and use thereof” (Shanghai Institute of Materia Medica, Chinese Academy of …, priority 2014, dated 2018)

How the values were obtained:
[1] = system: phosphorylation of EGFR^T790M/L858R, AKT and ERK in NCI-H1975 cells; assay: Western blot, EGFR phosphorylation and downstream signaling in NCI-H1975 cells; format: cell-based, human; conditions: FIG. 1
Procedure: The tests were performed using conventional Western Blot (immunoblotting test), as follows. A certain number of A431 cells and NCI-H1975 cells in the logarithmic growth phase were inoculated on 6-well plate and adherent cultured overnight in the incubator. Replaced with serum-free medium and starved for 24 h, a certain concentration of compound was added and reacted for 2 h. 50 ng/mL of EGF stimulating factor was added and reacted for 10 min. The cells were lysed with lysate and samples were collected, and then the samples were taken for SDS-PAGE electrophoresis. After electrophoresis, the protein was transferred to a nitrocellulose membrane by a semi-dry transfer system. The nitrocellulose membrane was placed in a blocking solution (5% skimmed milk diluted with TBS containing 0.1% Tween 20) for 2 h at room temperature, and then incubated overnight at 4° C. in a primary antibody solution (diluted with TBS containing 0.1% Tween 20 by 1:500). It was washed for three times with TBS containing 0.1% Tween 20 for 15 min each time. The membrane was placed in a secondary antibody solution (horseradish peroxidase labeled goat anti-rabbit IgG, diluted with TBS containing 0.1% Tween 20 by 1:2000) and reacted for 1 h at room temperature. After washed for three times as above, the membrane was dyed with ECL plus reagent and photoed using image Quant LAS 4000 camera.

[2] = system: human lung cancer NCI-H1975 nude mice subcutaneous xenografts; assay: NCI-H1975 nude mice subcutaneous xenograft; format: in vivo
Procedure: The tumor tissue in the growth stage was taken and cut into small pieces of about 1.5 mm^3, which were inoculated subcutaneously in nude mice under aseptic conditions. When the tumor was grown to about 100 mm^3, nude mice were random allocated. […] The mice were gavage administered once a day for 11 days, and the solvent control group (injection water containing 1% Tween 80) was set. During the whole experiment, the diameter of the transplanted tumor was measured twice a week with a vernier caliper and the weights of the mice were weighed. The volume of tumor was calculated as follows: TV=½×a×b^2 (Where a,b respectively represent long and wide)

IGF-1R = target: T1, IGF-1R (Homo sapiens, UniProt P08069); assay: kinase inhibitory activity test (ELISA), IGF-1R; format: biochemical; conditions: ATP 5 μM, 1 hour at 37° C.
T1 construct: purchased Millipore
T1 sequence (P08069 31-1367): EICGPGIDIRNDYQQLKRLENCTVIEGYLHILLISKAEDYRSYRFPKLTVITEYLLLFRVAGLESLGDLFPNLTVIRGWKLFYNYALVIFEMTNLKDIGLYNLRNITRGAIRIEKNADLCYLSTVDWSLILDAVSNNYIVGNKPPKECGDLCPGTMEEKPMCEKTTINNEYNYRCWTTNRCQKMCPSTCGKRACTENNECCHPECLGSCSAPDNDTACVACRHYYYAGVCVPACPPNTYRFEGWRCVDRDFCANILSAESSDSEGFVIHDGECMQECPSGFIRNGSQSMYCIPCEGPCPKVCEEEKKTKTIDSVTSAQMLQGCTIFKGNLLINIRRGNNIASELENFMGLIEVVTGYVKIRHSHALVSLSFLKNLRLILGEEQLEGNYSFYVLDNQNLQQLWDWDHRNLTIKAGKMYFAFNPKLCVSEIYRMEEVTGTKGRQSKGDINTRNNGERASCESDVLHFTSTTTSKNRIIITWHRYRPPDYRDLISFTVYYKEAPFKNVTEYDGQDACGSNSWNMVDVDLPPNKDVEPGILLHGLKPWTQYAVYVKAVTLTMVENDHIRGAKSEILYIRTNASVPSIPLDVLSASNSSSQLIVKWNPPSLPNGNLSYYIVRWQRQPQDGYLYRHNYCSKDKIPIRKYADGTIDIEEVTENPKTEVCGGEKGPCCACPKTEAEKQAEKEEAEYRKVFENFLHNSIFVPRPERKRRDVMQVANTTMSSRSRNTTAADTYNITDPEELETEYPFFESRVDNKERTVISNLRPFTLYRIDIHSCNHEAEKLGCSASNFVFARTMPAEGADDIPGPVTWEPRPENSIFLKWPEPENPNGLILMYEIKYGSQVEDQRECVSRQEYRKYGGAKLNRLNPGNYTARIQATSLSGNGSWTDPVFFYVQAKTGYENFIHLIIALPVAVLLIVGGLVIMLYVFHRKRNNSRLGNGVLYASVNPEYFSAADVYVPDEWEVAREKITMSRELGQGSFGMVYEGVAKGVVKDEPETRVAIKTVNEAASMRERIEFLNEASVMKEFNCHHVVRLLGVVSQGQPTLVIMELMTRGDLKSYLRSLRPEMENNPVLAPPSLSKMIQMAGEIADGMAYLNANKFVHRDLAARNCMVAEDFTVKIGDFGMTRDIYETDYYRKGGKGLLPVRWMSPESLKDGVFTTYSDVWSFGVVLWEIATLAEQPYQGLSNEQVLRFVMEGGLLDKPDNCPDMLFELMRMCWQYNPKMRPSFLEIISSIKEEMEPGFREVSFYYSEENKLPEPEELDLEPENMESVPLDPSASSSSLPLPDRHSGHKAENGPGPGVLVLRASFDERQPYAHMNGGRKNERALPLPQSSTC
Summary of the method: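 Poly(Glu,Tyr)4:1-coated plates; kinase reacted 1 h at 37 °C with 5 μM ATP (final) in HEPES pH 7.4 buffer with Mg2+/Mn2+. Phosphotyrosine detected by PY99 and HRP anti-mouse IgG with OPD at 490 nm; IC50 from four-parameter fit.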

C=CC(=O)Nc1cc(Nc2ncc(Cl)c(Nc3ccc4ccccc4c3)n2)c(OC)cc1N(C)CCN(C)C [CCB120067, N-((5-((5-chloro-4-((naphthalen-2-yl)amino))pyrimidin-2-yl)amino)-2-((N-methyl-N-dimethylaminoethyl)amino)-4-methoxyphenyl)acrylamide]
inhibition of phosphorylation of EGFR^T790M/L858R and activation of AKT and ERK ([1]; 2 h compound, EGF 50 ng/mL 10 min): significantly inhibit
inhibitory activity on phosphorylated EGFR^T790M/L858R, Akt and Erk compared with CO1686 ([1]; CCB120067 at 1 nM): comparable or slightly better than that of CO1686 at 100 nM concentration
inhibition of tumor growth ([2]; 10 mg/kg gavage once a day for 11 days, FIG. 3): significantly inhibit
tumor regression ([2]; 10 mg/kg gavage, after 7 days of administration): completely subsided
inhibitory activity on tumor growth compared with positive control ([2]; CCB120067 10 mg/kg versus CO1686 100 mg/kg): stronger than anti-tumor effect of CO1686 at 100 mg/kg dose
IC50 (IGF-1R): 31.9 nM
